This note sets out measurements from publication PMC9810272 (Nature, 2022).

Read-outs that look alike come from different tables or passages of the source.

Assay [1] addresses T1, yeast Tango2p (Saccharomyces cerevisiae, UniProt P53275).
T1 sequence (P53275 1-312): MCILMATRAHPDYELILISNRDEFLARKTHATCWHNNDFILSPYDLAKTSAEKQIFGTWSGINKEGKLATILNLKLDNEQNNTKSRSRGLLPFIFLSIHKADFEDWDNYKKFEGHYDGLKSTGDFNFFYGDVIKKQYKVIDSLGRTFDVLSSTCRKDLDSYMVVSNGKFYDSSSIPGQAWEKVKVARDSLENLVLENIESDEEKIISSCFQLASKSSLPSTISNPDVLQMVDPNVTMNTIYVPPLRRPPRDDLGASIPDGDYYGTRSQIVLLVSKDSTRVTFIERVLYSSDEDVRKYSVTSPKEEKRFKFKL
The assay can be described thus: UV-vis difference spectra titration. The format is binding.

Assay [2] has as its target T1, yeast Tango2p. The assay can be described thus: UV-vis difference spectra titration. The format is binding. This is another data set of the same source.

As usually defined, the Kd is the equilibrium constant for the complex coming apart. In the case of `C=CC1=C(C)C2=Cc3c(C=C)c(C)c4[n]3[Fe][n]3c(c(C)c(CCC(=O)O)c3=CC3=NC(=C4)C(C)=C3CCC(=O)O)=CC1=N2` [ferric haem], on yeast Tango2p [1], the Kd stood at 38.7 µM.

With `C=CC1=C(C)C2=Cc3c(C=C)c(C)c4[n]3[Fe][n]3c(c(C)c(CCC(=O)O)c3=CC3=NC(=C4)C(C)=C3CCC(=O)O)=CC1=N2` [ferrous haem], the Kd on yeast Tango2p [2] amounted to 15.4 µM. This lies in the double-digit micromolar range.
